According to patent US20200181192A1, “DISULFIDE BIOCONJUGATION” (The Regents of the University of California, priority 2017, published 2020):

Columns and labels:
[1] = Solubility in polar solvents; type: physicochemical; details: for solubility in polar solvents: acetonitrile, methanol; for solubility in methanol:water mixture: 9:1 methanol:water
Procedure: Previous bicyclobutane molecules (1a, 1b) were determined by Baran and coworkers to be bench stable so no further studies were conducted on their stability.

[2] = determined by Baran and coworkers; no further studies conducted; cited from earlier work
[3] = in diethyl ether; diphenyl disulfide, benzyl amine, diphenyl acetic acid, 1-butanethiol; GC-MS
Source text: To determine the stability and selectivity of bicyclobutane molecules endo-3, exo-3 were solubilized in diethyl ether and tested with a variety of functional groups (diphenyl disulfide, benzyl amine, diphenyl acetic acid, and 1-butanethiol) then analyzed on a GC-MS to confirm the continued presence of starting materials.

[4] = in solvent left on the bench, over 2 days

| Compound | solubility in polar solvents [1] | bench stability [2] | reaction with functional groups (continued presence of starting materials) [3] | stability in polar solvents by 1H-NMR [4] | solubility in methanol:water mixture [1] |
| --- | --- | --- | --- | --- | --- |
| Cc1ccc(S(=O)(=O)C23CC2C3)cc1 (stereo not shown) [1b, 1-tosylbicyclo[1.1.0]butane] | not be completely soluble | bench stable |  |  |  |
| O=S(=O)(c1ccccc1)C12CC1C2 (stereo not shown) [1a, 1-(phenylsulfonyl)bicyclo[1.1.0]butane] | not be completely soluble | bench stable |  |  |  |
| OC[C@@H]1[C@H]2C[C@@H]12 [exo-3, Exo-Bicyclo[1.1.-]butane-2-methanol] |  |  | apparent only in the case with diphenyl acetic acid and 1-butane thiol | no change | soluble |
| OC[C@H]1[C@H]2C[C@@H]12 [endo-3, Endo-Bicyclo[1.1.-]butane-2-methanol] |  |  | apparent only in the case with diphenyl acetic acid and 1-butane thiol | no change | soluble |
